Where two headings read alike, the source gives them in different places.
Tests used:
Format in all cases: in vivo
[1] = system: Chenopodium album (CHEAL); test: Post-emergence efficacy, Method B; conditions: 360 h, read-out: Control of weed species after post-emergence application, CHEAL (100=total damage to plant; 0=no damage to plant)
Experimental: (§1) An “instant formulation”, known as the IF50, containing 50 g/L of the “technical” (i.e. unformulated) active ingredient was prepared by dissolving the active ingredient in a mixture of organic solvents and emulsifier, details of which are provided in the table. This IF50 was then mixed with a small, variable amount of acetone to aid dissolution, before addition of an aqueous solution of 1% v/v ammonium sulphate+1% v/v Empicol ESC70 (Sodium lauryl ether sulphate) adjuvant, as the aqueous diluent, to form an aqueous spray solution which contains a predetermined concentration of the active ingredient (which varies depending on the application rate of the active ingredient to the plants).
(§2) Composition of the mixture of organic solvents and emulsifier used as a base for the instant formulation.
(§3) This aqueous spray solution was then sprayed onto the plants, after about 12 days' cultivation. The plants were grown from seeds sown in standard soil, placed in a glasshouse under controlled conditions (at 24/18° C. or 20/16° C., day/night; 16 hours light; 65% humidity). After spray application the plants were then grown on in a glasshouse under the same conditions and watered twice daily. After 15 days the test was evaluated (100=total damage to plant; 0=no damage to plant).
(§4) Ipomoea hederacea (IPOHE), Euphorbia heterophylla (EPHHL), Chenopodium album (CHEAL), 20 Amaranthus retroflexus (AMARE), Lolium perenne (LOLPE), Digitaria sanguinalis (DIGSA), Eleusine indica (ELEIN), Echinochloa crus-galli (ECHCG), Setaria faberi (SETFA)

[2] = system: Echinochloa crus-galli (ECHCG); test: Post-emergence efficacy, Method B; conditions: 360 h, read-out: Control of weed species after post-emergence application, ECHCG (100=total damage to plant; 0=no damage to plant)
Experimental: as §1, §2, §3, §4

[3] = system: Amaranthus retroflexus (AMARE); test: Post-emergence efficacy, Method B; conditions: 360 h, evaluated after 15 days, read-out: Control of weed species after post-emergence application, AMARE (100=total damage to plant; 0=no damage to plant); for pest or weed control at 1000 g/ha: Application Rate 1000 g/Ha; for pest or weed control at 500 g/ha: Application Rate 500 g/Ha
Experimental: as §1, §2, §3, §4

Setaria faberi (SETFA) [4] = test: Post-emergence efficacy, Method B; conditions: 360 h, evaluated after 15 days, read-out: Control of weed species after post-emergence application, SETFA (100=total damage to plant; 0=no damage to plant); for pest or weed control at 1000 g/ha: Application Rate 1000 g/Ha; for pest or weed control at 500 g/ha: Application Rate 500 g/Ha
Experimental: as §1, §2, §3, §4

[5] = system: Digitaria sanguinalis (DIGSA); test: Post-emergence efficacy, Method B; conditions: 360 h, evaluated after 15 days, read-out: Control of weed species after post-emergence application, DIGSA (100=total damage to plant; 0=no damage to plant); for pest or weed control at 1000 g/ha: Application Rate 1000 g/Ha; for pest or weed control at 500 g/ha: Application Rate 500 g/Ha
Experimental: as §1, §2, §3, §4

Lolium perenne (LOLPE) = test: Post-emergence efficacy, Method B; conditions: 360 h, read-out: Control of weed species after post-emergence application, LOLPE (100=total damage to plant; 0=no damage to plant)
Experimental: as §1, §2, §3, §4

[6] = system: Euphorbia heterophylla (EPHHL); test: Post-emergence efficacy, Method B; conditions: 360 h, evaluated after 15 days, read-out: Control of weed species after post-emergence application, EPHHL (100=total damage to plant; 0=no damage to plant); for pest or weed control at 1000 g/ha: Application Rate 1000 g/Ha; for pest or weed control at 500 g/ha: Application Rate 500 g/Ha
Experimental: as §1, §2, §3, §4

Eleusine indica (ELEIN) = test: Post-emergence efficacy, Method B; conditions: 360 h, read-out: Control of weed species after post-emergence application, ELEIN (100=total damage to plant; 0=no damage to plant)
Experimental: as §1, §2, §3, §4

[7] = system: Ipomoea hederacea (IPOHE); test: Post-emergence efficacy, Method B; conditions: 360 h, read-out: Control of weed species after post-emergence application, IPOHE (100=total damage to plant; 0=no damage to plant)
Experimental: as §1, §2, §3, §4

[8] = system: Echinochloa crus-galli (ECHCG); test: Post-emergence efficacy, Method A; conditions: Application rate 500 g/Ha; evaluated after 13 days; 100=total damage to plant, 0=no damage
Method in brief: (§5)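 Plants grown 14 days in pots of standard soil in a glasshouse (24/16 °C day/night, 14 h light, 65% humidity), then sprayed post-emergence with compound formulated in acetone and IF50 and diluted in 0.25% or 1% Empicol ESC70 + 1% ammonium sulphate. Damage scored after 13 days, 0–100 (100 = total damage).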

Setaria faberi (SETFA) [9] = test: Post-emergence efficacy, Method A; conditions: Application rate 500 g/Ha; evaluated after 13 days; 100=total damage to plant, 0=no damage
Method in brief: as §5

[10] = system: Digitaria sanguinalis (DIGSA); test: Post-emergence efficacy, Method A; conditions: Application rate 500 g/Ha; evaluated after 13 days; 100=total damage to plant, 0=no damage
Method in brief: as §5

[11] = system: Echinochloa crus-galli (ECHCG); test: Post-emergence efficacy, Method C; conditions: Application Rate 400 g/Ha, evaluated at 21 days
Experimental: An “instant formulation”, known as the IF50, containing 50 g/L of the “technical” (i.e. unformulated) active ingredient was prepared by dissolving the active ingredient in a mixture of organic solvents and emulsifier, details of which are provided in the table. This IF50 was then mixed with a small, variable amount of acetone to aid dissolution, before addition of a 1% v/v aqueous solution of the adjuvant Empicol ESC70 3EO (Sodium lauryl ether sulphate) and 1% v/v Ammonium sulphate, as the aqueous diluent, to form an aqueous spray solution which contains a predetermined concentration of the active ingredient (which varies depending on the application rate of the active ingredient to the plants).
as §2
as §3, with “plants” for “plants,”, “21” for “12”, “24/18°” for “24/18° C. or 20/16°”, “14” for “16”, “The” for “After 15 days the”, “evaluated at 21 days” for “evaluated”
Ipomoea hederacea (IPOHE), Amaranthus palmeri (AMAPA), Lolium perenne (LOLPE), Eleusine indica (ELEIN), Echinochloa crus-galli (ECHCG), Conyza canadensis (ERICA)

[12] = Method B, Application Rate 1000 g/Ha, evaluated after 15 days
[13] = Method B, Application Rate 500 g/Ha, evaluated after 15 days

Compound | pest or weed control at 1000 g/ha [1] | pest or weed control at 1000 g/ha [2] | pest or weed control at 1000 g/ha [3] | pest or weed control at 1000 g/ha (Setaria faberi (SETFA) [4]) | pest or weed control at 1000 g/ha [5] | pest or weed control at 1000 g/ha (Lolium perenne (LOLPE)) | pest or weed control at 1000 g/ha [6] | pest or weed control at 1000 g/ha (Eleusine indica (ELEIN)) | pest or weed control at 1000 g/ha [7] | other results
O=S(=O)([O-])CC[n+]1ccc(-c2cccnn2)cn1 [Compound A213, 2-(4-pyridazin-1-ium-3-ylpyridazin-1-ium-1-yl)ethanesulfonate chloride] | 80% | 100% | 100% | 100% | 100% | 90% | 100% | 100% | 80% | 
N[C@H](CC[n+]1ccc(-c2ncccn2)cn1)C(=O)O [Compound A207, [(1R)-1-carboxy-3-(4-pyrimidin-2-ylpyridazin-1-ium-1-yl)propyl]ammonium 2,2,2-trifluoroacetate] | 90% | 100% | 100% | 100% | 90% | 20% | 70% | 100% | 100% | 
O=C([O-])CCC[n+]1ccc(-c2ncccn2)cn1 [Compound A220] |  |  | 100% | 30% | 100% |  | 100% |  |  | pest or weed control at 1000 g/ha [1, 12]: 90%; pest or weed control at 1000 g/ha [2, 12]: 90%; pest or weed control at 1000 g/ha (Lolium perenne (LOLPE); [12]): 90%; pest or weed control at 1000 g/ha (Eleusine indica (ELEIN); [12]): 100%; pest or weed control at 1000 g/ha [7, 12]: 30%
Cl.N[C@@H](CCC[n+]1ccc(-c2ncccn2)cn1)C(=O)O.[Cl-] [Compound A211, [(1S)-1-carboxy-4-(4-pyrimidin-2-ylpyridazin-1-ium-1-yl)butyl]ammonium Dichloride] |  |  |  |  |  |  |  |  |  | Control of weed species after post-emergence application, ECHCG [8]: 100; Control of weed species after post-emergence application, SETFA (Setaria faberi (SETFA) [9]): 100; Control of weed species after post-emergence application, DIGSA [10]: 100; pest or weed control at 500 g/ha [1]: 90%; pest or weed control at 500 g/ha [2]: 100%; pest or weed control at 500 g/ha [3]: 100%; pest or weed control at 500 g/ha (Setaria faberi (SETFA) [4]): 100%; pest or weed control at 500 g/ha [5]: 100%; pest or weed control at 500 g/ha (Lolium perenne (LOLPE)): 10%; pest or weed control at 500 g/ha [6]: 80%; pest or weed control at 500 g/ha (Eleusine indica (ELEIN)): 100%; pest or weed control at 500 g/ha [7]: 100%
O=S(=O)([O-])CC[n+]1ccc(-c2ccncn2)cn1 [Compound A4] |  |  |  |  |  |  |  |  |  | pest or weed control at 500 g/ha [1, 13]: 80%; pest or weed control at 500 g/ha [2, 13]: 70%; pest or weed control at 500 g/ha [3]: 100%; pest or weed control at 500 g/ha (Setaria faberi (SETFA) [4]): 40%; pest or weed control at 500 g/ha [5]: 100%; pest or weed control at 500 g/ha (Lolium perenne (LOLPE); [13]): 90%; pest or weed control at 500 g/ha [6]: 100%; pest or weed control at 500 g/ha (Eleusine indica (ELEIN); [13]): 80%; pest or weed control at 500 g/ha [7, 13]: 100%
Nc1ccnc(-c2cc[n+](CCC(=O)O)nc2)n1 [Compound A41] | 90% | 100% | 100% | 100% | 100% | 60% | 100% | 50% | 20% | 
O=C(O)CC[n+]1ccc(-c2cccnn2)cn1 [Compound A138, 3-(4-pyridazin-3-ylpyridazin-1-ium-1-yl)propanoic acid chloride] | 100% | 100% | 100% | 100% | 100% | 100% | 100% | 100% | 40% | 
O=S(=O)([O-])C[n+]1ccc(-c2ncccn2)cn1 [Compound A3, (4-pyrimidin-2-ylpyridazin-1-ium-1-yl)methanesulfonate] |  |  |  |  |  |  |  |  |  | Control of weed species after post-emergence application, ECHCG (100=total damage to plant; 0=no damage to plant) [11]: 13

— patent US11618743B2, “Herbicidal compounds” (SYNGENTA PARTICIPATIONS AG, priority 2017, dated 2023)
